Consider four compounds from patent US9857359B2, “Methods for determining drug efficacy using cereblon-associated proteins” (CELGENE CORPORATION, priority 2012, dated 2018).

The test system of test [1] is Aiolos. The test can be described thus: Overexpressed flag-Aiolos-myc in AU565 cells, western blot. In kind it is cell-based. Here is the method:
In some experiments, cell lines were transfected with an Aiolos overexpression vector using Lipofectamine reagent in a batch method. Cells were seeded in a 12 well plate at 1×10^5 cells in a 3 mL volume per well. Where specified, cells were pretreated with MG132 at 10 uM for 1 hour, or DMSO was added as a control. Following the pretreatment, Compound A was added directly to the cell culture media at the specified concentration.
Cells were harvested and lysed in Pierce #89900 Ripa buffer containing 2× protease inhibitor cocktail from Pierce #78442. The lysate was applied to a QiaShredder to remove DNA. Total protein yield was measured using BioRad DC protein determination kit (Cat#500-0112). Lysates were stored at −80° C. until use. Samples were applied to BioRad Criterion PreCast gels, 10% (Bio-Rad#345-0010) and transferred to Bio-Rad Nitrocellulose/Filter Paper Sandwiches (#162-0233) for western blot analysis.
On the technique in general: In western blotting, separated proteins are transferred to a membrane and probed.

Test [2] deals with Aiolos. The test can be described thus: Aiolos immunohistochemistry in OCI-LY10 xenograft lymphoma. In kind it is in vivo, mice. Here is the method:
Xenografts from lymphoma OCI-LY10 cells were used for the following experiments. Immunohistochemistry was performed on the Bond-Max automated slide stainer (Leica Microsystems) using the associated Bond Polymer Refine Detection Kit. Four micron thick FFPE sections were deparaffinized on the instrument. Antigen retrieval was performed with Epitope Retrieval 2 (pH 9.0) for 20 minutes at 100° C. The slides were blocked for endogenous peroxidase activity with Peroxide Block for 5 minutes at room temperature. […] Enzymatic detection of anti-Aiolos antibody was accomplished with hydrogen peroxide substrate and diaminobenzidine tetrahydrochloride (DAB) chromogen at room temperature for 10 minutes. Slides were counterstained with Hematoxylin for 5 minutes at room temperature.

The subject of test [3] is Aiolos. The test can be described thus: Aiolos expression in drug treated T cells (FIG. 48). The format is cell-based, human. The following applies: all of the respective cells tested (FIGS. 47, 48). The protocol: Primary T cells from up to 3 donors were isolated from human leukocytes (Blood Center of New Jersey, East Orange, N.J.) by centrifugation through FICOLL® following the ROSETETTESEP™ protocol (Stem Cell Technologies, Vancouver, Canada). Purified T cells were stimulated with anti-CD3 Antibody (Ebioscience, San Diego, Calif.), drug treated for six hours, harvested and Aiolos and Ikaros protein expression was determined by immunoblot analysis using antibodies against Aiolos (Santa Cruz, Dallas, Tex.) and Ikaros (Millipore, Billerica, Mass.) with our without blocking peptide.

A further test concerns the target T1, Pegasus (Homo sapiens, UniProt Q9H5V7).
T1 construct: endogenous in cells; host or cells: normal human CD19+ B cells
T1 sequence (Q9H5V7 1-419): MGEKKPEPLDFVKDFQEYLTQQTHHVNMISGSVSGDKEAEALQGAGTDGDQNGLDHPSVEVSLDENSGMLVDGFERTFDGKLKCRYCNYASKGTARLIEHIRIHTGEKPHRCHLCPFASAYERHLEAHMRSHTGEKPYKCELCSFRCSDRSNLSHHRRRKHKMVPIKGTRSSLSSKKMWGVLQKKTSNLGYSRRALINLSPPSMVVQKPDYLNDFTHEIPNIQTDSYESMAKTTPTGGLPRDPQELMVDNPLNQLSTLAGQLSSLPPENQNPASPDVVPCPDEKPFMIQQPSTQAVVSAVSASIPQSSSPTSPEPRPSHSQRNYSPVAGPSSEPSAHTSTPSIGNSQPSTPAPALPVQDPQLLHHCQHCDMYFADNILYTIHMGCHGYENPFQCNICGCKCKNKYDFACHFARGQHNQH
The test can be described thus: SimpleWestern of normal human CD19+ B cells, Pegasus. The format is cell-based. Conditions: various concentrations. The protocol: Human B cells were isolated from 3 donors of whole bloods from the New Jersey Blood Center using B cell isolation kits from StemCell Technologies. IKZF family proteins were quantified using the automated capillary-based SimpleWestern System Sally (ProteinSimple). 100 ng of cell lysate protein or serial dilutions of recombinant proteins were mixed in reducing buffer with fluorescent Molecular Weight (MW) standards. After these samples were heated to 95° C. for 5 min, samples were loaded into each capillary tubes and proteins were separated based on MW sizes through stacking and separation matrices for 40 minutes at 250 Volts. Proteins were then immobilized to capillary walls using optimal photoactivated capture chemistry. Following protein immobilization, capillaries were incubated with a blocking reagent for 23 min and target proteins were probed with a specific primary antibody and horseradish peroxidase-conjugated anti-rabbit secondary antibody (ProteinSimple). A mixture of luminol and peroxide (ProteinSimple) was added, the resulting chemiluminescent signal was captured by a CCD camera, and the signal intensities were quantified and analyzed using Compass Software for Sally (ProteinSimple). The Ikaros family proteins in each sample were then calculated based on standard curve of human recombinant proteins. B-Actin was also used as an internal normalization control.

For a further test, the target named is Ikaros (Homo sapiens, UniProt Q13422). The test can be described thus: Ikaros western blots in MM cells, T cells and B cells. Further details: endogenous in cells; host or cells: U266, DF15 (and other MM lines), primary CD3+ T cells, primary CD19+ B cells. Conditions: for Reduction of Ikaros levels compared with other treatment compounds for MM: MM cells. In kind it is cell-based. The protocol:
U266 cells were obtained from ATCC (American Type Culture Collection, Manassas, Va., USA). DF15 cells were obtained from John Shaughnessy (University of Arkansas, Little Rock, Ark., USA). CD19+ B cells were purchased from HemaCare BioResearch Products (Van Nuys, Calif.). Cells were grown in RPMI-1640 medium (Cellgro, Manassas, Va.) containing 10% (V/V) heat-inactivated fetal bovine serum (Gibco, Grand Island, N.Y., USA) supplemented with 2 mM glutamine. […] Primary T cells were isolated from human leukocytes (Blood Center of New Jersey, East Orange, N.J.) by centrifugation through FICOLL® centrifugation medium following the ROSETETTESEP™ protocol (Stem Cell Technologies, Vancouver, Canada). […] Dexamethasone (Sigma, St. Louis, Mo.), melphalan (Sigma, St. Louis, Mo.) and bortezomib (Selleck Chemicals, Houston, Tex.) treated was for 6 hours. The final DMSO concentration is 0.1%. Cells were pre-treated with 10 μM MG-132 (Calbiochem Biochemicals, Billerica, Mass.) for 30 minutes prior to drug addition. Cells were harvested, washed in PBS and cell lysates separated on SDS-PAGE gels (Bio-Rad, Hercules, Calif.). Membranes were immunoblotted with anti-Aiolos (Santa Cruz Biotechnology, Dallas, Tex.), anti-Ikaros (Millipore, Billerica, Mass.) and anti-Actin (Sigma, St. Louis, Mo.; or LI-COR Biosciences, Lincoln, Nebr.) and secondary antibodies (LI-COR Biosciences, Lincoln, Nebr.). The blots were analyzed on ODESSEY® imager (LI-COR Biosciences, Lincoln, Nebr.).
Cell lysates were separated on a 10% TGX SDS-PAGE gel (Bio-Rad) and blotted for Aiolos (Santa Cruz, sc-10198), Ikaros (Millipore, ABD16) and Actin (Sigma, AC15).

In test [4] the test system is Aiolos. The test can be described thus: Aiolos regulation in cells with low or lost CRBN expression. Conditions: loss of CRBN protein. The format is cell-based.
The mark [5] stands for this setting: 10 μM lenalidomide, 1 μM pomalidomide, U266, DF15 MM cells, primary CD3+ T cells, primary CD19+ B cells, cycloheximide treated U266.
[6] abbreviates: six MM cell lines (OPM-2, RPMI-8226, LP-1, U266, H929 and JJN3), various concentrations.

Sequence of Ikaros (Q13422 whole entry): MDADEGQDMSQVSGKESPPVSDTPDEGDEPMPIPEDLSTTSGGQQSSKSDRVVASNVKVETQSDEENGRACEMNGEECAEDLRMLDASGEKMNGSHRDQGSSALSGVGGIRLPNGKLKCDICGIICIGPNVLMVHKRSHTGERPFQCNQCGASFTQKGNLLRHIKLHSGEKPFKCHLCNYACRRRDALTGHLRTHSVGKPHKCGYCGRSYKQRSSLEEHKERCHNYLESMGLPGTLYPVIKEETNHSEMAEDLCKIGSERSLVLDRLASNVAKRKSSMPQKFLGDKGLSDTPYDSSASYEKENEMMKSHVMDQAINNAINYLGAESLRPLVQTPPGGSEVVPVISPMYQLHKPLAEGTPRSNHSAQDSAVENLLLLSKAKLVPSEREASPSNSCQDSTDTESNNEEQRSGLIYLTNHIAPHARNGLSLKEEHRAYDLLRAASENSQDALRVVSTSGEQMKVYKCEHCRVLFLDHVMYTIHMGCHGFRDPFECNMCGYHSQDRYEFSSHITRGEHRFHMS

With `Cc1nc2cccc(N)c2c(=O)n1C1CCC(=O)NC1=O` (centres unmarked) [Compound A, 3-(5-amino-2-methyl-4-oxo-4H-quinazolin-3-yl)-piperidine-2,6-dione], the “Inhibition of Aiolos with proteasome inhibitor MG-132” value in the test on Aiolos [1] (MG132 pretreatment) is on record as “rescued by the addition of proteasome inhibitor MG-132”. Further, the “Time at which reduction of overexpressed Aiolos begins to show” value in the test on Aiolos [1] (after the treatment) is “about 5 hours”. Also, the “Approximate Aiolos levels in compound treated tumors (rank order)” value with Aiolos [2] (all lower than vehicle or vincristine treated tumors) was “S-isomer of Compound A<Compound A<R-isomer of Compound A<lenalidomide”. Besides, in the test with Aiolos [2] (immunohistochemistry), the “Aiolos expression in lymphoma cells” value is given as “inhibited the expression of Aiolos”. For the same compound, the Aiolos expression entry with Aiolos [3] was “reduced the expression of Aiolos and Ikaros”.

As to `O=C1CC[C@H](N2Cc3c(OCc4ccc(CN5CCOCC5)cc4)cccc3C2=O)C(=O)N1` [Compound B, 3-(4-((4-(morpholinomethyl)benzyl)oxy)-1-oxoisoindolin-2-yl)piperidine-2,6-dione], the Aiolos expression result with Aiolos [3] was “reduced the expression of Aiolos and Ikaros”. For the same compound, on Pegasus, the Pegasus expression entry is “without affecting Helios, Pegasus, or β-Actin”.

Take `Nc1cccc2c1CN(C1CCC(=O)NC1=O)C2=O` (centres unmarked) [lenalidomide]: the Ikaros expression result at Ikaros (setting [5]) is “reduced the expression of Aiolos and Ikaros”; at Ikaros (setting [6]) it was “significantly inhibited Aiolos and Ikaros expression”. At Ikaros, the “Reduction of Ikaros levels compared with other treatment compounds for MM” value is reported as “unique to immunomodulatory compounds provided herein”.

`Nc1cccc2c1C(=O)N(C1CCC(=O)NC1=O)C2=O` (centres unmarked) [pomalidomide, reference compound]: the “Down-regulation of Aiolos” value in the test with Aiolos [4] is recorded as “loss of CRBN protein prevents down-regulation of Aiolos”. Further, the Ikaros expression result is “reduced the expression of Aiolos and Ikaros” at Ikaros (setting [5]); “significantly inhibited Aiolos and Ikaros expression” at Ikaros (setting [6]). For the same compound, the “Reduction of Ikaros levels compared with other treatment compounds for MM” value on Ikaros is reported as “unique to immunomodulatory compounds provided herein”.
